Reference: EPA's ToxValDB 9.5 (doi:10.2903/j.efsa.2013.3269)
In brackets after ≈: the same amount, converted by molar mass. Several values for one entry are separate records, joined by “and”; a condition that tells them apart may be missing. Equal values may be shown once.

Assays:
Typhlodromus pyri = assay: LR50; higher = less toxic; conditions: acute; duration: 7 days; mortality
Aphidius rhopalosiphi = assay: LR50; higher = less toxic; conditions: acute; duration: 48 hours; mortality
Apis mellifera = conditions: acute, duration: 48 hours, mortality
Oryctolagus sp. = conditions: developmental; development
Tagia sp. = conditions: acute; duration: 14 days; mortality
Oncorhynchus mykiss = conditions: acute; duration: 96 hours; mortality
Anas platyrhynchos = conditions: oral, mortality
Colinus virginianus = conditions: acute; oral; diet; mortality

**Q.** Which results are given for CCc1cc(C)cc(CC)c1-c1c(OC(=O)C(C)(C)C)n2n(c1=O)CCOCC2 [Pinoxaden]?
**A.** LR50 (Typhlodromus pyri): 1.81 g/ha; LR50 (Aphidius rhopalosiphi): 6.22 g/ha; LD50 (Rattus norvegicus; acute, oral, mortality): > 5000 mg/kg-day; NOAEL (Rattus norvegicus; chronic, duration: 2 years, histopathology: nonneoplastic): 10 mg/kg-day; NOAEL (Rattus norvegicus; reproduction developmental, body weight): 250 mg/kg-day; NOAEL (Rattus norvegicus; reproduction developmental, oral, gavage, no effects): 500 mg/kg-day; LD50 (Apis mellifera; dermal): > 100 µg/piece; LD50 (Apis mellifera; oral, unspecified): > 200 µg/piece; NOAEL (Oryctolagus sp.): 30 mg/kg-day and 10 mg/kg-day; LC50 (Tagia sp.): > 1000 mg/kg; LC50 (Oncorhynchus mykiss): 10.3 µg/mL (≈ 25.7 µM); LD50 (Anas platyrhynchos; acute, unspecified): > 2250 mg/kg-day; LC50 (Anas platyrhynchos; short-term, feed): > 1800 mg/kg-day; LC50 (Colinus virginianus): > 1570 mg/kg-day
